pIC50: −log10 of the molar value.

The test system of the assay is Plasmodium berghei. The experiment in a line: Luciferase/luciferin-expressing antifolate-resistant parasites were used to infect a culture of HepG2 cells that were pre-incubated with compounds. Infected hepatocytes emit light due to the luciferase reaction. Assay results are presented as the percent inhibition of light emission compared to control. […]. The following applies: sporozoite; for IC90: read-out: LUCIFERASE INFECTION ASSAY - IC90. The class given is functional.

Setting [1] is: read-out: LUCIFERASE INFECTION ASSAY - IC50.

For orientation: pIC50 means the IC50 on a negative log10 scale, so that one unit is a factor of ten. In general, IC90 refers to the point of the concentration-response curve where the effect stands at 90%. With `N#CCCN(Cc1ccco1)C(=O)Cn1ncc(Cl)c(Cl)c1=O`, the IC90 was greater than 10 µM. Besides, the pIC50 (PBLUC_HILL_SLOPE 3.57, PBLUC_R_SQUARED 0.442, read-out: LUCIFERASE INFECTION ASSAY - IC50) was 5.08.
As to `O=[N+]([O-])c1ccc(Nc2cccc(OC3CCCC3)c2)nc1`, the IC90 is greater than 10 µM. Further, the pIC50 under setting [1] was less than 5.00.
As to `N#CC(C#N)=NNc1ccccc1Oc1ccc(Cl)cc1Cl`, the IC90 is greater than 9.96 µM. The pIC50 (FFLUC_HILL_SLOPE 1.54, FFLUC_R_SQUARED 0.588, HEPG2TOX_HILL_SLOPE 1.18, HEPG2TOX_R_SQUARED 0.604, read-out: LUCIFERASE INFECTION ASSAY - IC50) was less than 5.00.
Regarding `Fc1ccc(-c2nc(CSc3nc(NC4CC4)c4ccccc4n3)cs2)cc1`, the 90% effect concentration (IC90) worked out at 4.9 µM. Where the note is “PBLUC_HILL_SLOPE 8, PBLUC_R_SQUARED 0.651, read-out: LUCIFERASE INFECTION ASSAY - IC50”, the pIC50 was 5.43.
Consider `Cc1nc(SCC(=O)N2c3ccccc3Sc3ccccc32)n(CC(C)C)c1C`, for which the IC90 was greater than 10 µM. Under setting [1], the negative logarithm of the IC50 (pIC50) is less than 5.00.
With `Cc1ccc(-c2noc(CCCN3CCN(c4cnn(-c5ccccc5)c(=O)c4Cl)CC3)n2)cc1`, the IC90 worked out at 5.31 µM. Further, the pIC50 (HEPG2TOX_HILL_SLOPE 2.5, HEPG2TOX_R_SQUARED 0.985, PBLUC_HILL_SLOPE 2.59, PBLUC_R_SQUARED 0.752, read-out: LUCIFERASE INFECTION ASSAY - IC50) was 5.64.
Regarding `Cc1sc2nc(-c3cccnc3)nc(N3CCN(S(=O)(=O)/C=C/c4ccccc4)CC3)c2c1C`, the concentration for an effect of 90% (IC90) was greater than 10 µM. The pIC50 (PBLUC_HILL_SLOPE 11.2, PBLUC_R_SQUARED 0.469, read-out: LUCIFERASE INFECTION ASSAY - IC50) was 5.06.
Consider `Fc1ccc(Nc2nccc3c2ncn3Cc2ccccc2)cc1Cl`, for which the IC90 is greater than 10 µM. In addition, the negative-log IC50 (pIC50) (PBLUC_HILL_SLOPE 1.48, PBLUC_R_SQUARED 0.272, read-out: LUCIFERASE INFECTION ASSAY - IC50) was 5.44.
With `Cc1cc(NNC(=O)Nc2cccc(Cl)c2)nc2c1c(C)nn2C`, the IC90 was greater than 9.57 µM. Under “HEPG2TOX_HILL_SLOPE 1.19, HEPG2TOX_R_SQUARED 0.796, PBLUC_HILL_SLOPE 1.82, PBLUC_R_SQUARED 0.0269, read-out: LUCIFERASE INFECTION ASSAY - IC50”, the pIC50 was 5.23.
For `O=C(Nc1ccccc1SCc1ccsc1)C1CCCCC1`, the 90% effect concentration (IC90) was greater than 10 µM. Further, the pIC50 under setting [1] is less than 5.00.
Take `NC(=O)c1cccc(-c2cn3c(-c4cccc(OC(F)(F)F)c4)cnc3cn2)c1`: the IC90 was 8.06 µM. Further, for the setting “PBLUC_HILL_SLOPE 12.4, PBLUC_R_SQUARED 0.473, read-out: LUCIFERASE INFECTION ASSAY - IC50”, the pIC50 is 5.17.
In the case of `CSc1nccc(-c2ccc(S(=O)(=O)n3nc(C)c([N+](=O)[O-])c3C)s2)n1`, the IC90 is greater than 8.02 µM. Moreover, the pIC50 under setting [1] is less than 5.10.
On to `O=c1c(Cl)c(Cl)cnn1-c1ccc(S(=O)(=O)NCCc2ccc3c(c2)OCCO3)cc1`, for which the IC90 was greater than 10 µM. The pIC50 (PBLUC_HILL_SLOPE 21.5, PBLUC_R_SQUARED 0.289, read-out: LUCIFERASE INFECTION ASSAY - IC50) is 5.02.
Regarding `OCCNc1nc(Oc2ccc(-c3ccccc3)cc2)nc2ccccc12`, the concentration for an effect of 90% (IC90) was found to be 1.97 µM. Besides, under “PBLUC_HILL_SLOPE 1.95, PBLUC_R_SQUARED 0.572, read-out: LUCIFERASE INFECTION ASSAY - IC50”, the negative logarithm of the IC50 (pIC50) is 6.19.
As for `CC(C)c1ccc(NC(=O)N2[C@@H]3CC[C@@H](C3)[C@H]2c2nc3c(OCC4CC4)cccc3[nH]2)cc1`, the IC90 is greater than 10 µM. Further, where the note is “PBLUC_HILL_SLOPE 2.47, PBLUC_R_SQUARED 0.452, read-out: LUCIFERASE INFECTION ASSAY - IC50”, the pIC50 is 5.21.
As for `CCC(C)(C)c1ccc(Oc2ccc(NC(=O)COC(=O)c3cc(-c4cc(OC)c(OC)c(OC)c4)nc4ccccc34)cc2)cc1`, the IC90 was greater than 10 µM. Where the note is “PBLUC_HILL_SLOPE 0.863, PBLUC_R_SQUARED 0.508, read-out: LUCIFERASE INFECTION ASSAY - IC50”, the pIC50 is 5.66.
On to `COc1cc2c(cc1OC)C(c1cccs1)N(CC(=O)Nc1cc([N+](=O)[O-])ccc1C)CC2` (stereo not drawn), for which the IC90 is 2.62 µM. Besides, the pIC50 (FFLUC_HILL_SLOPE 11.9, FFLUC_R_SQUARED 0.176, HEPG2TOX_HILL_SLOPE 0.633, HEPG2TOX_R_SQUARED 0.848, PBLUC_HILL_SLOPE 2.15, PBLUC_R_SQUARED 0.479, read-out: LUCIFERASE INFECTION ASSAY - IC50) is 6.03.
In the case of `COc1cccc(Nc2nccc3nc(-c4ccc(F)c(F)c4)[nH]c23)c1`, the IC90 is greater than 10 µM. For the same compound, the pIC50 (HEPG2TOX_HILL_SLOPE 7.52, HEPG2TOX_R_SQUARED 0.793, PBLUC_HILL_SLOPE 2.32, PBLUC_R_SQUARED 0.606, read-out: LUCIFERASE INFECTION ASSAY - IC50) is 5.39.
For the compound `CS(=O)(=O)c1ncc(Cl)c(C(=O)Nc2nc(-c3cc(F)ccc3F)cs2)n1`, the IC90 was 6.15 µM. Further, for the setting “HEPG2TOX_HILL_SLOPE 13.3, HEPG2TOX_R_SQUARED 0.702, PBLUC_HILL_SLOPE 67.7, PBLUC_R_SQUARED 0.588, read-out: LUCIFERASE INFECTION ASSAY - IC50”, the pIC50 is 5.23.
On to `CCn1nc(C)cc1-c1nnc(SCc2ccccc2)n1-c1cccc(C(F)(F)F)c1`, for which the IC90 was greater than 7.44 µM. The pIC50 under setting [1] was less than 5.13.
Regarding `Cc1cc(C)n(-c2ccc(S(N)(=O)=O)cc2)n1`, the IC90 is greater than 13.1 µM. Moreover, under “FFLUC_HILL_SLOPE 0.55, FFLUC_R_SQUARED 0.0304, read-out: LUCIFERASE INFECTION ASSAY - IC50”, the pIC50 was less than 4.88.
`O=C(Nc1ccc(-n2nc(C(F)(F)F)cc2C(F)(F)F)cc1)Nc1cc(Cl)cc(Cl)c1`: the IC90 was determined as 2.08 µM. For the same compound, the pIC50 under setting [1] is 5.74.
With `Cn1nnnc1Sc1ccc([N+](=O)[O-])c2cnccc12`, the IC90 is 3.42 µM. Also, under “HEPG2TOX_HILL_SLOPE 3.78, HEPG2TOX_R_SQUARED 0.957, PBLUC_HILL_SLOPE 12.7, PBLUC_R_SQUARED 0.328, read-out: LUCIFERASE INFECTION ASSAY - IC50”, the negative-log IC50 (pIC50) was 5.54.
Regarding `CC1CCc2ccccc2N1CC(=O)N(CCC(N)=O)Cc1ccccc1` (stereo not drawn), the IC90 was greater than 10 µM. Under setting [1], the pIC50 was less than 5.00.
Turning to `CCOC(=O)c1ccc2c(c1)nc(-c1ccc(Sc3ccc(C)cc3)c([N+](=O)[O-])c1)n2CC`, the IC90 is greater than 10 µM. Moreover, the negative-log IC50 (pIC50) under setting [1] is less than 5.00.
For the compound `CCOC(=O)c1sc(N(NC(=O)c2ccc(Cl)cc2)C(=O)c2ccc(Cl)cc2)c2c1CC(C)(C)CC2=O`, the IC90 is 2.02 µM. Moreover, the negative-log IC50 (pIC50) under setting [1] was 5.74.
As for `O=S(=O)(c1ccc(Cl)c(NC(=S)N/N=C/c2ccc3ncccc3c2)c1)N1CCOCC1`, the IC90 is greater than 10 µM. Further, the pIC50 (PBLUC_HILL_SLOPE 2.75, PBLUC_R_SQUARED 0.637, read-out: LUCIFERASE INFECTION ASSAY - IC50) is 5.26.
With `CCNC(=O)C1CCCN(Cc2noc(-c3ccccc3OC)n2)CC1` (stereo not drawn), the IC90 is greater than 9.21 µM. In addition, the pIC50 under setting [1] is less than 5.04.
In the case of `O=C(CNc1cccc(C(F)(F)F)c1)N/N=C/c1c2ccccc2c(Cl)c2ccccc12`, the IC90 is greater than 10 µM. Further, the pIC50 (HEPG2TOX_HILL_SLOPE 7.3, HEPG2TOX_R_SQUARED 0.234, PBLUC_HILL_SLOPE 3.59, PBLUC_R_SQUARED 0.507, read-out: LUCIFERASE INFECTION ASSAY - IC50) is 5.21.
For `Cc1cc2ccccn2c1C(=O)c1ccccc1Br`, the IC90 is greater than 10 µM. The pIC50 (HEPG2TOX_HILL_SLOPE 6.22, HEPG2TOX_R_SQUARED 0.365, PBLUC_HILL_SLOPE 4.01, PBLUC_R_SQUARED 0.105, read-out: LUCIFERASE INFECTION ASSAY - IC50) was 5.01.
As to `COc1cccc(Nc2nnc(SCC(=O)N(c3ccccc3)C(C)C)s2)c1`, the IC90 was greater than 10 µM. Moreover, under setting [1], the pIC50 was less than 5.00.
For `O=C(NCCC1=CCCCC1)c1cccc(N2CCCC2=O)c1`, the IC90 is greater than 10 µM. In addition, the negative logarithm of the IC50 (pIC50) (FFLUC_HILL_SLOPE 0.738, FFLUC_R_SQUARED 0.473, PBLUC_HILL_SLOPE 0.427, PBLUC_R_SQUARED 0.183, read-out: LUCIFERASE INFECTION ASSAY - IC50) was less than 5.00.
On to `CCCCNC(=O)NCCc1ccc2c(c1)OCCO2`, for which the IC90 was greater than 10 µM. Further, the pIC50 under setting [1] is less than 5.00.
Consider `COc1ccc(-c2cc(NC=O)c3ncc(-c4cc(OC)c(OC)c(OC)c4)n3c2)c(OC)c1`, for which the IC90 was found to be 5.96 µM. In addition, the negative-log IC50 (pIC50) (FFLUC_HILL_SLOPE 13.2, FFLUC_R_SQUARED 0.535, HEPG2TOX_HILL_SLOPE 2.06, HEPG2TOX_R_SQUARED 0.871, PBLUC_HILL_SLOPE 2.04, PBLUC_R_SQUARED 0.466, read-out: LUCIFERASE INFECTION ASSAY - IC50) is 5.69.
For `CN1/C(=C\C=N\c2cc(Cl)c([N+](=O)[O-])cc2O)C(C)(C)c2ccccc21`, the 90% effect concentration (IC90) was greater than 10 µM. Moreover, under “HEPG2TOX_HILL_SLOPE 12.2, 11.0, HEPG2TOX_R_SQUARED 0.457, 0.953, PBLUC_HILL_SLOPE 3.42, PBLUC_R_SQUARED 0.319, read-out: LUCIFERASE INFECTION ASSAY - IC50”, the pIC50 was 5.25.
For the compound `CCc1c(C)sc2nc(SCc3nc4ccccc4s3)n(-c3ccc(O)cc3C)c(=O)c12`, the IC90 is greater than 10 µM. Moreover, the pIC50 under setting [1] was less than 5.00.
As to `CC(C)=CCn1c2ccc(NC(=O)OCCF)cc2c(=O)n1C`, the IC90 was greater than 10.3 µM. Further, under setting [1], the pIC50 is less than 4.99.
With `CC(CCc1ccccc1)NC(=O)Cn1c(=O)c(=O)n(Cc2ccccc2)c2ccc(Cl)cc21` (stereo not drawn), the IC90 is greater than 10 µM. Besides, the pIC50 (FFLUC_HILL_SLOPE 12.6, FFLUC_R_SQUARED 0.716, read-out: LUCIFERASE INFECTION ASSAY - IC50) is less than 5.00.
For the compound `Cc1nn(-c2ccccc2)c(Cl)c1/C=N/N1CCN(c2ccc(Cl)cc2)CC1`, the IC90 was greater than 10 µM. Also, the pIC50 under setting [1] was less than 5.00.
